Structures are written as SMILES.

The target of assay [1] is T1, α/β hydrolase domain–containing protein 2 (ABHD2) (Homo sapiens, UniProt P08910).
T1 sequence (P08910 1-425): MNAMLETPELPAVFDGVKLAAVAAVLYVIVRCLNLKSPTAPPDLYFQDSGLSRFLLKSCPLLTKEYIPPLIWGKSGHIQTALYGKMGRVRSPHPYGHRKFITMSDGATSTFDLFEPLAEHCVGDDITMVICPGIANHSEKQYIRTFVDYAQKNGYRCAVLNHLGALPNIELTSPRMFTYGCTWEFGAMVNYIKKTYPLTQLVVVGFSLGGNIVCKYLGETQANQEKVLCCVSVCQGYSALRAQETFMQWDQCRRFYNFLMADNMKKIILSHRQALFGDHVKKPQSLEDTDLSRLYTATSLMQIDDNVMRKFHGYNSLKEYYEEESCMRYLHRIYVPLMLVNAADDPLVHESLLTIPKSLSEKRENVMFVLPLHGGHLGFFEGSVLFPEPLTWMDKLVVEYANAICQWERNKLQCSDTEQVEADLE
The assay can be described thus: monoacylglycerol hydrolysis by recombinant ABHD2. The assay is classed as cell-based.

In assay [2] the target is CatSper (Homo sapiens, UniProt Q7RTX7+Q86XQ3+Q8NEC5+Q96P56). The experiment in a line: whole-cell patch clamp of human spermatozoa. Format: cell-based. (The patch-clamp technique gives a direct electrical read-out from membranes.)
CatSper, sequence (Q8NEC5 whole entry): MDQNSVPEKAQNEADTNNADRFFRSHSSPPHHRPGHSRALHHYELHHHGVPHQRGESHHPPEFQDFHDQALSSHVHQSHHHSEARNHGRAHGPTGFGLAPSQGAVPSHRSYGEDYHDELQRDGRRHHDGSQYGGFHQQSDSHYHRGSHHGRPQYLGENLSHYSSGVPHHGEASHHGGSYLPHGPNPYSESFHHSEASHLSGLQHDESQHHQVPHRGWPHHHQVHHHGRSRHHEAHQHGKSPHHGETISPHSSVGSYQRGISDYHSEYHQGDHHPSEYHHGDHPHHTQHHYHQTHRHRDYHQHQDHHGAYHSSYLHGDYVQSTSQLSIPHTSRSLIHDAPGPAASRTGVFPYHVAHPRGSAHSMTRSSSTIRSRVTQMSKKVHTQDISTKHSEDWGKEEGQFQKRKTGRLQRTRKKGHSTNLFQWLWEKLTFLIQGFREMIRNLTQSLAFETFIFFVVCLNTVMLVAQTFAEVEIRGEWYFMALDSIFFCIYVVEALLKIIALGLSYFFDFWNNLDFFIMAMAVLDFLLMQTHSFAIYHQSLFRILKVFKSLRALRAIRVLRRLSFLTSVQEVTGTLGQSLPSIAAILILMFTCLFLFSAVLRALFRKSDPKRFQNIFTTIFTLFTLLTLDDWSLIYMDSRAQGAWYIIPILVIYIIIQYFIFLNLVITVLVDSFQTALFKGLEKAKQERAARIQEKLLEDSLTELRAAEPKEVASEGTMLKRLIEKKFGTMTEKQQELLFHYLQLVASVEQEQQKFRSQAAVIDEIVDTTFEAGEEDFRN
CatSper, sequence (Q96P56 whole entry): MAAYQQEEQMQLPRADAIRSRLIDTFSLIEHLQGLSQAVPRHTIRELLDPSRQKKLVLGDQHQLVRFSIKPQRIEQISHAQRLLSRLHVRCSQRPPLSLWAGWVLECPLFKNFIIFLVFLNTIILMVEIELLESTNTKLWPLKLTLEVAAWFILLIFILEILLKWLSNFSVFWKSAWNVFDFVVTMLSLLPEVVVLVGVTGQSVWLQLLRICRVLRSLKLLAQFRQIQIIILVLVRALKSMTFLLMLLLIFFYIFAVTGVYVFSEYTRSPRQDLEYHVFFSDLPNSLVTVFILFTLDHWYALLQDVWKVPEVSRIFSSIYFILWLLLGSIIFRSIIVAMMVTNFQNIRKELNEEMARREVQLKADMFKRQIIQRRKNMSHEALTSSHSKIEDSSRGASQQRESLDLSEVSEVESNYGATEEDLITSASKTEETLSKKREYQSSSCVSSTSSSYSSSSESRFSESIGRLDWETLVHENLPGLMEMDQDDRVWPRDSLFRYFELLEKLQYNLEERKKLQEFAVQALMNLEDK
CatSper, sequence (Q86XQ3 whole entry): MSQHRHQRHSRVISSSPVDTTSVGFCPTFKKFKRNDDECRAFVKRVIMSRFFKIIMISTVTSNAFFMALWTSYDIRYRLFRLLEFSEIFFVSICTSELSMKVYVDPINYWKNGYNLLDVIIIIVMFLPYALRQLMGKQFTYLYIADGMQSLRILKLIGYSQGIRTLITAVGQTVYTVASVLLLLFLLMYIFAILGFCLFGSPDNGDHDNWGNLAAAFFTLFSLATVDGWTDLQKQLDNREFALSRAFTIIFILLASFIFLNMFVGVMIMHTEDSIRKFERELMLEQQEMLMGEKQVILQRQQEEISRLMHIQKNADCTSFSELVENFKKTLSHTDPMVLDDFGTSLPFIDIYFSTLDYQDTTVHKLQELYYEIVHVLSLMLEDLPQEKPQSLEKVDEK
CatSper, sequence (Q7RTX7 whole entry): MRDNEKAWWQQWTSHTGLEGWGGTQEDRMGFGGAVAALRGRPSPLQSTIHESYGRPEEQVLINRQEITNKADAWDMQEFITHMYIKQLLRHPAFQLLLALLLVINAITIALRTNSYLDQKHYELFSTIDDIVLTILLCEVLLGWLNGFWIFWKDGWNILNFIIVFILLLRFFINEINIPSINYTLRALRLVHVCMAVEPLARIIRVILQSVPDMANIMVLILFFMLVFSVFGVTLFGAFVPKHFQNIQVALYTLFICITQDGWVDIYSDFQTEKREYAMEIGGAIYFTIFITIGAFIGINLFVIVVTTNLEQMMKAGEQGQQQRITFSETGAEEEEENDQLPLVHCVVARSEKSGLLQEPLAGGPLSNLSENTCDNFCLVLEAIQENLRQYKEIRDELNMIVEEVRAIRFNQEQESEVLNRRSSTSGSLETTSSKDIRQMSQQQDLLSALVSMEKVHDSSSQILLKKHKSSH

Consider `CCCCC/C=C\C/C=C\C/C=C\C/C=C\CCCC(=O)OC(CO)CO` [2AG, 2-arachidonoylglycerol], for which the “monoacylglycerol hydrolysis by recombinant ABHD2 (free glycerol production) with” value in assay [1] is “ABHD2, which metabolizes endocannabinoids 1AG and 2AG only in the presence of progesterone”.

On to `CCCCC/C=C\C/C=C\C/C=C\C/C=C\CCCC(=O)OCC(O)CO` (centres unmarked) [1AG, 1-arachidonoylglycerol], for which, in assay [2], the “whole-cell patch clamp of human spermatozoa” value is “whereas 1AG and 2AG (AGs) inhibited ICatSper”.
